Results: publication PMC4592245 (PLoS ONE, 2015)

Columns and labels:
[1] = target: T1, SRC–3 (Homo sapiens, UniProt Q9Y6Q9); parameters: Cell lysate was prepared by adding RIPA buffer; endogenous in cells; host or cells: HCC1143, SUM149PT, SUM159PT, MDA-MB-231, MDA-MB-231-LM3-3; method as in PMID 22053001; conditions: cited from earlier work
[2] = system: MDA-MB-231-LM3-3 orthotopic breast tumors; experiment: Therapeutic efficacy in orthotopic TNBC mouse model; assay type: in vivo, nude mice
Procedure: To establish orthotopic breast tumors, 0.75 × 10^6 MDA-MB-231-LM3-3 cells were injected into one of the second mammary fat pads of nude mice (Charles River Laboratories, female, 6–7 weeks, n = 6/group). Phospho-bufalin was dissolved in PBS for tumor treatment. PBS was injected as the vehicle control. When tumors became palpable, generally 14 days after injection, mice were randomized into two groups. The treatment group was then injected with phospho-bufalin subcutaneously (0.75 mg/kg per dose, 3 doses per week) for 3 weeks while the control group received PBS. Tumor lengths and widths were measured three times per week. Tumor sizes were calculated by: (length × width × width)/2.

[3] = system: heart muscle; experiment: H&E staining of heart tissues; conditions: 24 h after drug administration
[4] = system: Ki–67; experiment: Ki-67 immunohistochemistry of tumor tissue; assay type: in vivo, nude mice; conditions: 0.75 mg/kg 3 times per week
Procedure: The formalin-fixed, paraffin-embedded tissue was dried at 58°C for 1 hour in an oven, and de-paraffinized by soaking slides in xylene, ethanol, and finally distilled water. Antigen was retrieved by steaming slides in a target retrieval solution, 10 mM citrate buffer (pH 6.0), for 30 minutes. Endogenous peroxidases were blocked with a 3% of hydrogen peroxide solution in PBS buffer. The leftover hydrogen peroxide was removed with PBS rinse. […] To stain the SRC–3 antigen, anti-SRC–3 antibody (Mouse source, BD Biosciences Inc. Cat# 611104) was pre-diluted 1:400 in a normal serum blocking solution. To stain the Ki–67 antigen, anti-Ki–67 (Rabbit source, Cell Signaling Technology Inc. Cat#9027) was used in 1:10000 dilution. During the staining procedure, the sections were incubated with HRP-polymer conjugated secondary antibodies (Vector Laboratories, Cat#7401 for rabbit antibody, Cat#MP–2400 for mouse antibody). To visualize the immunostaining, the sections were incubated with a fresh DAB solution (Dako Inc. Cat# K3468) and monitored under a microscope. Once ideal signals were observed, the reaction was stopped by rinsing the slides with water. Nuclear counterstain was also performed by immersing slides in Mayer’s Hematoxylin and a bluing reagent.

[5] = Pharmacokinetic study of 3-phospho-bufalin
Procedure: Five quality control (QC) samples at 10 ng/mL, 20 ng/mL, 500 ng/mL, 4000 ng/mL and 8000 ng/mL of plasma were prepared independently of those used for the calibration curves. QC samples were prepared on the day of analysis in the same way as the calibration standards.
Standards, QC samples, and unknown samples were injected into LC-MS/MS for quantitative analysis. The pharmacokinetic parameters of p-Buf were analyzed using WinNonLin. The PK trace was fitted into a non-compartmental extravascular model.

[6] = system: ICR mice; experiment: Electrocardiogram (EKG) measurements; assay type: in vivo, mouse;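 further: Non-invasive EKG recorded at several successive time points, with each individual signal then analysed by physiologic waveform analysis software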
Procedure: Non-invasive EKG recordings were made using the ECGenie system (Mouse Specifics) at several subsequent time points. […] Data acquisition was performed using the program LabChart 6 (AD Instruments). Individual EKG signals were then evaluated using e-MOUSE physiologic waveform analysis software (Mouse Specifics) as previously described [31].

[7] = target: T1, SRC–3; experiment: SRC-3 levels in tumor tissues (Western blotting, IHC); assay type: in vivo, nude mice; parameters: from tissue; host or cells: orthotopic MDA-MB-231-LM3-3 xenograft tumours from nude mice; conditions: 0.75 mg/kg 3 times per week
Procedure: Cell lysate was prepared by adding RIPA buffer (containing 10 mM Tris-Cl pH 8.0, 1 mM EDTA, 0.5 mM EGTA, 1% Triton X–100, 0.1% sodium deoxycholate, 0.1% SDS, 140 mM NaCl, and protease inhibitors) to cells kept on ice. After spinning samples at 16,000 rpm for 15 minutes at 4°C, insoluble materials in the collected cell lysate were precipitated and discarded. The total protein concentration was measured using a Bradford protein assay. An equivalent mass of each sample was loaded and electrophoretically separated by 10% SDS-PAGE. Then proteins on PAGE the gel were transferred to a PVDF membrane. Anti-SRC–3 (Cell Signaling Technology Co. Cat# 2126) and anti-actin (Cell Signaling Technology Co. Cat# 8457) were used to probe the membranes.
The formalin-fixed, paraffin-embedded tissue was dried at 58°C for 1 hour in an oven, and de-paraffinized by soaking slides in xylene, ethanol, and finally distilled water. Antigen was retrieved by steaming slides in a target retrieval solution, 10 mM citrate buffer (pH 6.0), for 30 minutes. Endogenous peroxidases were blocked with a 3% of hydrogen peroxide solution in PBS buffer. The leftover hydrogen peroxide was removed with PBS rinse. […] To visualize the immunostaining, the sections were incubated with a fresh DAB solution (Dako Inc. Cat# K3468) and monitored under a microscope. […]

[8] = target: T1, SRC–3; experiment: Western blotting of SRC-3, dose response in LM3-3 cells; assay type: cell-based; parameters: endogenous in cells
[9] = system: LM3-3 cells; experiment: Gefitinib and bufalin co-treatment, cell viability; assay type: cell-based
[10] = system: mouse primary hepatocytes; experiment: Viability of primary hepatocytes; assay type: cell-based; conditions: concentrations of up to 10 μM
Procedure: The HCC1143 cell line was grown in RPMI–1640 medium, SUM149PT and SUM159PT cell lines were grown in F–12 medium, and MDA-MB–231 cells were grown in DMEM. All culture media were supplemented with 10% fetal bovine serum. All cell lines were grown in a humidified incubator containing 5% CO2 at 37°C. Primary hepatocytes were isolated from an adult male mouse (C57BL) by collagenase perfusion (0.8 mg/mL; Sigma–Aldrich, C5138) through the portal vein as described previously, and maintained in M199 medium with 10% FBS. The viability of freshly isolated hepatocytes was verified using Trypan blue staining.
(§1) TNBC cells (5000 to 7000 cells per well) were seeded in 96-well plates in medium supplemented with 10% FBS. […] Cell viabilities relative to untreated control cells were plotted using Graphpad Prism.

[11] = system: SUM159PT; experiment: Cell cytotoxicity assay (MTT), SUM159PT; assay type: cell-based; conditions: 72 h
Procedure: as §1

[12] = system: MDA-MB-231-LM3-3; experiment: Cell cytotoxicity assay (MTT), MDA-MB-231-LM3-3; assay type: cell-based; conditions: MDA-MB-231-LM3-3, 72 h
Procedure: as §1

[13] = system: HCC1143; experiment: Cell cytotoxicity assay (MTT), HCC1143; assay type: cell-based; conditions: Homo sapiens, HCC1143, 72 h
Procedure: as §1

[14] = system: cancer cells; conditions: selective toxicity towards cancer cells; cited from earlier work
[15] = system: LM3-3 cells; experiment: Single cell motility assay; assay type: cell-based
Procedure: Microtiter 96-well plates pre-coated with collagen V were covered with beads provided by a Cell Motility HCS kit (Thermo Scientific Co. Cat# K0800011). 500 LM3-3 cells were seeded in each bead-coated well. […] The cell track areas (pixels) were counted using Image J. To attain statistical significance, more than 50 cell tracks in each sample were counted.

[16] = system: MDA-MB–231; experiment: Cell cytotoxicity assay (MTT), MDA-MB-231; assay type: cell-based; conditions: MDA-MB-231, 72 h
Procedure: as §1

[17] = system: SUM149PT; experiment: Cell cytotoxicity assay (MTT), SUM149PT; assay type: cell-based; conditions: 72 h
Procedure: as §1

[18] = female, ICR, mouse, plasma, ip, 0.5 mg/kg
[19] = 7.5 mg/kg i.p., + 10 min post-injection
[20] = 7.5 mg/kg i.p., - 5 min (before injection)
[21] = 11.25 mg/kg i.p., + 5 min post-injection
[22] = 11.25 mg/kg i.p., + 10 min post-injection
[23] = 11.25 mg/kg i.p., + 15 min post-injection
[24] = 11.25 mg/kg i.p., - 5 min (before injection)

T1 sequence (Q9Y6Q9 whole entry): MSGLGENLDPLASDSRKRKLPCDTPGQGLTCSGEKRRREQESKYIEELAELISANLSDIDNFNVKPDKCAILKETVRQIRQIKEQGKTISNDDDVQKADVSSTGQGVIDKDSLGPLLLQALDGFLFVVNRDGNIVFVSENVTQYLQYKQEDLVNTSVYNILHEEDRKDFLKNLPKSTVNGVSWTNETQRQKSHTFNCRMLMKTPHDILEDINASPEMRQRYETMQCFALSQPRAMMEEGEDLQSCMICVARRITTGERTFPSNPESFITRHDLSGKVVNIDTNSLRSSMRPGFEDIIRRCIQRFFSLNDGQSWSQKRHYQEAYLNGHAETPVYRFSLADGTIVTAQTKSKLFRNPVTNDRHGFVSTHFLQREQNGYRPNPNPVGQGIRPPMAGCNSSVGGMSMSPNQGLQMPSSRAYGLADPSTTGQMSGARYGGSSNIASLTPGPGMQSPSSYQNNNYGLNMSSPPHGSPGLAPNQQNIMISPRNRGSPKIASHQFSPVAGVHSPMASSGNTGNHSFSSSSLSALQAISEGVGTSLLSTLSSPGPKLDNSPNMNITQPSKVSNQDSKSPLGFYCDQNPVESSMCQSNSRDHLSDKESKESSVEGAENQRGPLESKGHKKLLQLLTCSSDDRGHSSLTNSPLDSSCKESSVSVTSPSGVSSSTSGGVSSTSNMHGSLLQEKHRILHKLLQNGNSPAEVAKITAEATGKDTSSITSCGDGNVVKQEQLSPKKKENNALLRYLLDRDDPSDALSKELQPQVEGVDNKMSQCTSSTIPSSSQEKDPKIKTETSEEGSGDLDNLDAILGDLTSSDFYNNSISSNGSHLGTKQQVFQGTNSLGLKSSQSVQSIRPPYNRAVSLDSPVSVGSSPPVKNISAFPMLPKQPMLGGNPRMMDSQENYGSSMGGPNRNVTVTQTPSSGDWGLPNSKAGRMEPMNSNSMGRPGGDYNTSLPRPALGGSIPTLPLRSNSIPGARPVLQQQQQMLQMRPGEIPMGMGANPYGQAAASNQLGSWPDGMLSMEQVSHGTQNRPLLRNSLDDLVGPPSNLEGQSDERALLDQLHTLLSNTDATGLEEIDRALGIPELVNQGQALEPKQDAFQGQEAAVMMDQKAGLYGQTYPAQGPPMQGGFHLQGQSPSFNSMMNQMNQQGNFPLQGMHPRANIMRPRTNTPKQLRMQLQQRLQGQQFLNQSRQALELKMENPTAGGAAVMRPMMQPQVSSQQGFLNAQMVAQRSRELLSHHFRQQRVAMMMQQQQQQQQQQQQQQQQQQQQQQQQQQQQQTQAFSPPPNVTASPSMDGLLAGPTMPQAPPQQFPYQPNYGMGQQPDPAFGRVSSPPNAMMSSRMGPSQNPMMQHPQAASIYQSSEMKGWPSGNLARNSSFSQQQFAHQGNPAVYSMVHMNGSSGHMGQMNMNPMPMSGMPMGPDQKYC

In the case of `Cc1cc2c(C(C)C)c(O)c(O)c(C=O)c2c(O)c1-c1c(C)cc2c(C(C)C)c(O)c(O)c(C=O)c2c1O` [gossypol], the IC50 values [1] is given as “micromolar”.

With `C[C@]12CC[C@H](OP(=O)(O)O)C[C@H]1CC[C@@H]1[C@@H]2CC[C@]2(C)[C@@H](c3ccc(=O)oc3)CC[C@]12O` [3-phospho-bufalin, 3-Phospho-bufalin] the “body weight versus control at the end of the experiment” value ([2]; 0.75 mg/kg 3 times per week) was “statistically the same body weight”, the “tumor growth (tumor volume)” value ([2]; 0.75 mg/kg, 3 times per week for 3 weeks, subcutaneously) was “significantly inhibit TNBC tumor growth” and the “tumor weight, PBS treated relative to treatment group” value ([2]; day 31, 0.75 mg/kg 3 times per week) was ~ 2.4 times. For the same molecule, the “damage to cardiomyocytes (histology)” value [3] was “little damage to cardiomyocytes”, the “Ki-67 positive cells in tumor tissue (IHC)” value [4] was “dramatically fewer Ki–67 positive cells” and the AUC(0-inf) [5, 18] was 0.046 ± 0.018 µM·h. It also gave an AUC(0-t) [5, 18] of 0.031 ± 0.018 µM·h, a Tmax [5, 18] of 15 min and a half-life [5, 18] of 44.5 ± 6.24 min. The “conversion to parent bufalin in vivo” value ([5]; free bufalin detected in plasma) was “can be converted to parent bufalin in vivo”, the “changes in EKG parameters” value ([6]; 7.5 mg/kg and 11.25 mg/kg i.p.) was “did not observe significant changes in EKG parameters” and the HR [6, 19] was 788.7 ± 1.2 BPM. For the same molecule, the QRS [6, 19] was 11.0 ± 0.1 ms, the QT [6, 19] was 38.2 ± 0.9 ms and the QTc [6, 19] was 43.8 ± 1.0 ms. It also gave an RR [6, 19] of 76.1 ± 0.1 ms, an ST [6, 19] of 27.6 ± 0.9 ms and an HR [6, 20] of 754.7 ± 6.6 BPM. For the same molecule, the QRS [6, 20] was 10.6 ± 0.1 ms, the QT [6, 20] was 40.2 ± 0.6 ms and the QTc [6, 20] was 45.0 ± 0.5 ms. The RR [6, 20] was 79.6 ± 0.7 ms, the ST [6, 20] was 30.1 ± 0.7 ms and the HR [6, 21] was 779.7 ± 1.5 BPM. It also gave a QRS [6, 21] of 10.9 ± 0.1 ms, a QT [6, 21] of 37.1 ± 0.3 ms and a QTc [6, 21] of 42.3 ± 0.4 ms. It also gave an RR [6, 21] of 77.0 ± 0.1 ms, an ST [6, 21] of 26.7 ± 0.4 ms and an HR [6, 22] of 761.3 ± 7.5 BPM. It also gave a QRS [6, 22] of 11.1 ± 0.2 ms, a QT [6, 22] of 38.1 ± 0.6 ms and a QTc [6, 22] of 43.0 ± 0.6 ms. The RR [6, 22] was 78.8 ± 0.8 ms, the ST [6, 22] was 26.6 ± 0.5 ms and the HR [6, 23] was 755.0 ± 1.0 BPM. It also gave a QRS [6, 23] of 11.5 ± 0.1 ms, a QT [6, 23] of 39.1 ± 0.9 ms and a QTc [6, 23] of 43.9 ± 0.9 ms. It also gave an RR [6, 23] of 79.5 ± 0.1 ms, an ST [6, 23] of 28.1 ± 0.8 ms and an HR [6, 24] of 798.0 ± 12.8 BPM. The QRS [6, 24] was 10.6 ± 0.3 ms, the QT [6, 24] was 39.1 ± 2.4 ms and the QTc [6, 24] was 45.1 ± 2.9 ms. The RR [6, 24] was 75.8 ± 0.2 ms, the ST [6, 24] was 29.0 ± 2.2 ms and the “SRC-3 level in tumor tissue (IHC staining) versus PBS” value [7] was “significantly lower”. The “SRC-3 protein levels in tumor tissues (Western blotting) versus PBS” value [7] was “significantly lower”, the “potency to inhibit SRC-3 levels compared with bufalin” value ([8]; LM3-3 cells, Western blotting) was “less potent than bufalin” and the “downregulation of SRC-3 in LM3-3 cells (Western blotting)” value ([8]; dose response) was “can also inhibit SRC–3 expression levels”.

In the case of `COc1cc2ncnc(Nc3ccc(F)c(Cl)c3)c2cc1OCCCN1CCOCC1` [gefitinib], the “toxicity in LM3-3 cells, gefitinib alone” value ([9]; concentrations up to 20 μM) is reported as “minimal toxicity”.

For `C[C@]12CC[C@H](O)C[C@H]1CC[C@@H]1[C@@H]2CC[C@]2(C)[C@@H](c3ccc(=O)oc3)CC[C@]12O` [bufalin], the “toxicity in mouse primary hepatocytes” value [10] was “did not cause any observable toxicity”, the IC50 [11] was less than 20 nM and the IC50 ([11]; Homo sapiens, SUM-159-PT) was 15.9 nM. It also gave an IC50 ([12]; 72 h) of 16.6 nM, an IC50 [12] of less than 20 nM and an IC50 [13] of 71.8 nM. The IC50 values [14] was “low nM range”, the “damage to cardiomyocytes (histology)” value [3] was “little damage to cardiomyocytes” and the “time post injection at which bufalin became undetectable” value ([5]; released bufalin after p-Buf 0.5 mg/kg i.p.) was 1 h. The “toxicity toward LM3-3 cells under motility assay conditions” value ([15]; 12 h) was “minimal toxicity”, the “motility of LM3-3 cells” value ([15]; increasing concentrations) was “decreased with increasing concentrations” and the IC50 ([16]; Homo sapiens) was 20 nM. For the same molecule, the IC50 [16] was less than 20 nM, the IC50 [17] was less than 20 nM and the IC50 ([17]; Homo sapiens) was 16.6 nM. The “combination effect with gefitinib on LM3-3 cell viability” value ([9]; 5 or 10 nM bufalin with gefitinib) was “synergize with gefitinib”.
